Experimental data as given in patent US20210321613A1, “Process for Preparation of Thiocyclam Base and Salt” (ARYSTA L[…], priority 2018, published 2021).

How the values were obtained:
Format in all cases: in vivo
[1] = test system: Soybean looper, Chrysodeixis includens; experiment: Soybean looper bioassay by diet surface incorporation, mortality; conditions: for LC50: Chrysodeixis includens, 72 h, 3rd larval stage, diet surface incorporation, mortality 3 days after treatment (D + 3), read-out: LC50 (μg of a.i/ml of diet)
From the text: Soybean looper, Chrysodeixis includens—3rd larval stage
Bioassay by diet surface incorporation Mortality assessment 3 days after treatment a.i. refers to active ingredient
(§1) LC stands for “Lethal Concentration”. LC values refer to the concentration of a chemical required to kill a certain proportion of a population of pests. The concentration of the chemical that kills 50 percent of the pests during the observation period is the LC50 value and a concentration that kills 90 percent of a population is LC90, LD stands for “Lethal Dose”. LD50 is the amount of an ingested substance that kills 50 percent of a test sample and […] is the lethal dose that kills 90 percent of the test sample. […] In example 1, approximately 4 times less thiocyclam hydrochloride was ingested by the moths at LC50 compared to cartap and approximately 9 times less at LC90 compared to cartap. […] In example 7, all three insecticides performed similarly to eliminate the aphids on radish plants. […] The use of the thiocyclam hydrochloride composition embodiments is in no way restricted to these genera, but also extends in the same manner to other insects and other crops.

[2] = test system: White flies, Trialeurodes vaporarium; experiment: White fly larvae on bean, boom sprayer application (IRAC n°015 adapted), mortality; conditions: for LD50 (g al/ha) / LD90 (g a.i/ha): mortality 9 days after application (D + 9); for LD50 (g a.i./ha) / LD90 (g a.i./ha): mortality 14 days after application (D + 14)
From the text: White flies, Trialeurodes vaporarium—larvae
Study based on IRAC n°015 methods, stage and application method adapted Plant: bean Application: On the petri dish with larvae with a boom sprayer apparatus Assessment of mortality at 7, 9 and 14 days after application a.i. refers to active ingredient
as §1

[3] = test system: Aphids, Myzus persicae; experiment: Aphid larvae on radish, boom sprayer application (IRAC n°019 adapted), mortality; conditions: for LD50 (g a.iJha) / LD90 (g al./ha): mortality 3 days after application (D + 3); for LD50 (g al./ha) / LD90 (g alJha): mortality 4 days after application (D + 4)
From the text: Aphids, Myzus persicae—larvae
Study based on IRAC n°019 methods, application method adapted Plant: radish Application on petri dish with larvae with a boom sprayer apparatus Assessment of mortality 3 and 4 days after application a.i. refers to active ingredient
as §1

[4] = test system: Coding moth, Cydia pomonella
From the text: Coding moth, Cydia pomonella—onate
larvae Bioassay by diet incorporation; Mortality assessment 2 days after treatment a.i. refers to active ingredient
as §1

SMILES: CN(C)C(CSC(N)=O)CSC(N)=O [Cartap, reference compound]
- LC50 [1]: 53.1 µg/mL
- LD50 (g al/ha) ([2]; larvae, bean): 15.6 g al/ha
- LD90 (g a.i/ha) ([2]; larvae, bean): 4,566.3 g a.i/ha
- LD50 (g a.i./ha) ([2]; larvae, bean): 10.4 g a.i./ha
- LD90 (g a.i./ha) ([2]; larvae, bean): 910.4 g a.i./ha
- LD50 (g a.iJha) [3]: <18.18 g a.iJha
- LD90 (g al./ha) [3]: 36.70 g al./ha
- LD50 (g al./ha) [3]: <18.18 g al./ha
- LD90 (g alJha) [3]: 16 g alJha

SMILES: CN(C)C1CSSSC1.Cl [Thiocyclam HCl, N,N-dimethyl-1,2,3-trithian-5-ylamine hydrochloride]
- LC50 [1]: 8.99 µg/mL
- LC50 achieved with times less than cartap ([1]; compared to cartap, LC50): approximately 6 times
- LC90 compared to the concentration of cartap ([1]; compared to cartap, LC90): more than three times lower
- LC50 achieved with times less than thiocyclam oxalate ([1]; compared to thiocyclam oxalate, LC50): approximately 20 times
- LC90 compared to thiocyclam oxalate ([1]; compared to thiocyclam oxalate, LC90): orders of magnitude smaller
- times less ingested by the moths at LC50 compared to cartap ([4]; compared to cartap, LC50): approximately 4 times
- times less at LC90 compared to cartap ([4]; compared to cartap, LC90): approximately 9 times
- LC50 and LC90 compared to thiocyclam oxalate ([4]; compared to thiocyclam oxalate): significantly lower concentrations
- LD90 compared to cartap ([2]; days 7 and 9): lower application concentration compared to cartap
- LD90 (g ai./ha) ([2]; larvae, bean, mortality 7 days after application (D + 7)): 1,899 g ai./ha
- LD50 (g al/ha) ([2]; larvae, bean): 2.23 g al/ha
- LD90 (g a.i/ha) ([2]; larvae, bean): 4,905 g a.i/ha
- LD50 (g a.i./ha) ([2]; larvae, bean): 0.82 g a.i./ha
- LD90 (g a.i./ha) ([2]; larvae, bean): 7,910 g a.i./ha
- LD50 (g a.iJha) [3]: 12.04 g a.iJha
- LD90 (g al./ha) [3]: 30.51 g al./ha
- LD50 (g al./ha) [3]: 7.66 g al./ha
- LD90 (g alJha) [3]: 27.07 g alJha
